The results in this text go back to patent US10876076B2, “Detergents and cleaning agents having improved performance” (Henkel AG & Co. KGaA, priority 2016, dated 2020).

This data set is described as follows: Water solubility. It counts as physicochemical. Conditions: deionized water, pH 7, room temperature. Here is the method: [drawing 6] 2,3-dihydroxyterephthalic acid dimethyl ester (12.89 g, 57 mmol) from step a) was suspended in N,N-dimethylethylenediamine (72.8 g, 809 mmol) and the reaction mixture was stirred for 24 hours at 100° C. After adding 100 ml of dimethylformamide (DMF), the excess of N,N-dimethylethylenediamine, together with the DMF, was removed by distillation. The solid obtained was washed 2 times using 300 ml of ethyl acetate, subsequently recrystallized from methanol/ethyl acetate (1:2.5) and dried in a vacuum. 9.6 g of 2,3-dihydroxy-N,N′-bis(2-(dimethylamino)ethyl)terephthaldiamide was obtained as a beige solid. The water solubility thereof (deionized water, pH 7, room temperature) was over 70 g/l.

A value given as a limit tells only on which side of the number the result lay.

By solubility is commonly meant how much of the substance goes into solution per volume. Read a low solubility as a poorly soluble substance. As for `CN(C)CCNC(=O)c1ccc(C(=O)NCCN(C)C)c(O)c1O` [S1, 2,3-dihydroxy-N,N′-bis(2-(dimethylamino)ethyl) terephthaldiamide], the solubility was > 70 mg/mL.
